Measured values reported in US9034831B2, “Pharmaceutical composition for a hepatitis C viral protease inhibitor” (Boehringer Ingelheim International GmbH, priority 2009, dated 2015).
Structures can show the parent of a compound that is named as a salt.

Test: Solubility of drug substance in the compositions as a function of temperature
Assay type: physicochemical
Conditions: in the compositions of the invention

Structure (SMILES): C=C[C@@H]1C[C@]1(NC(=O)[C@@H]1C[C@@H](Oc2cc(-c3csc(NC(=O)C(C)C)n3)nc3c(Br)c(OC)ccc23)CN1C(=O)[C@@H](NC(=O)OC1CCCC1)C(C)(C)C)C(=O)O [Compound (1) sodium salt]
- solubility (temperature dependence): increases as the temperature decreases
